According to PMC4382313 (Chembiochem : a European journal of chemical biology, 2014):

Molecular target: WelP2 (Hapalosiphon welwitschii, UniProt A0A067YX78)
Test: in vitro prenyl diphosphate synthase assay
Format: biochemical
Conditions: product formed; details in SI Methods

In the case of `CC(C)=CCC/C(C)=C/COP(=O)(O)OP(=O)(O)O` [GPP], the “in vitro prenyl diphosphate synthase assay” value is reported as “demonstrated that WelP2 is a dedicated geranyl diphosphate synthase to provide GPP (SI Methods)”.
